{"source": "patent US10391070B2", "about": "“Compositions and methods for treating neurological diseases or injury” (MUSC FOUNDATION FOR RESEARCH DEVELOPMENT, priority 2012, dated 2019)", "key": {"[1]": {"tested_on": "minimal clonic seizures (6 Hz)", "test": "Minimal clonic seizure (6 Hz) test", "type": "in vivo, mouse", "conditions": "mice; for animals protected/animals tested, 0.25 h / animals protected/animals tested, 0.5 h / animals protected/animals tested, 1.0 h / animals protected/animals tested, 2.0 h / animals protected/animals tested, 4.0 h: 6 Hz", "method": "Mouse studies were performed by NIH Anticonvulsant Screening Program at the National Institute of Neurological Disorders and Stroke (Stables and Kupferberg, 1997) according to the established NIH experimental procedures outlined below. Compounds were delivered into mice by i.p. injection at a dose of 100 mg/kg in sterile 5% DMSO, 95% Neobee (Josey et al., 2013). One of four methods for seizure induction was subsequently administered to mice at 0.25, 0.5, 1, 2 and 4 h after treatment with compound. (1) Subcutaneous PTZ seizure threshold test. PTZ was administered at a concentration of 85 mg/kg, into the loose fold of skin in the midline of the neck. […] (2) Maximal electroshock test. 60 Hz of 50 mA alternating current was delivered for 0.2 s by corneal electrodes. Mice were considered protected from seizures when the hindlimb tonic extensor was absent (White et al., 1995). (3) Minimal clonic seizure (6 Hz) test. 6 Hz of 32 mA or 44 mA alternating current was delivered for 3 s by corneal electrodes to elicit a psychomotor seizure. Mice were considered protected from seizures when the automatistic behaviors were absent (Barton et al., 2001). (4) Corneal kindled mouse model. Mice were kindled electrically with a 3 s stimulation, 8 mA, 60 Hz, and corneal electrodes to a criterion of 10 consecutive Stage 5 seizures (facial clonus and head nodding progressing to forelimb clonus, and finally rearing and falling accompanied by a generalized clonic seizure as described by Racine, 1972). Animals generally reach Stage 5 after twice daily stimulation for 8 days. With continued stimulation once a day, animals usually progressed to a reproducible Stage 5 after 10-14 additional days. At least 72 hours after the mice were kindled, the test substance was administered i.p. and each animal was given the electrical stimulus indicated above. […] Treated animals not displaying a Stage 4 or 5 seizure were considered protected.\n6 Hz of 32 mA or 44 mA alternating current was delivered for 3 s by corneal electrodes to elicit a psychomotor seizure. Mice were considered protected from seizures when the automatistic behaviors were absent (Barton et al., 2001). Pre-administration of test compounds (100 mg/kg) to mice via i.p. injection protects against minimal clonic seizures (6 Hz). The data for each treatment is represented as the number of animals protected/number of animals tested.\nThe minimal clonic seizure (6 Hz) test is generally used to assess a agent's efficacy against electrically-induced seizures but uses a lower frequency (6 Hz) and longer duration of stimulation (3s) shock. Test compounds are pre-administered to mice via i.p. injection. Individual mice are challenged with sufficient current delivered through corneal electrodes to elicit a psychomotor seizure in 97% of animals (32 mA for 3s). Untreated mice will display seizures characterized by a minimal clonic phase followed by stereotyped, automatistic behaviors described originally as being similar to the aura of human patients with partial seizures. Animals not displaying this behavior are considered protected. Animals may also be evaluated using stimulation of 22 or 44 mA."}, "[2]": {"tested_on": "HT22 cells", "test": "t-BuOOH toxicity protection (MTS cell viability)", "type": "cell-based, mouse", "conditions": "HT22, 50 μM t-BuOOH", "method": "Cell viability was assessed by the ability of the viable cells to metabolize 3-(4,5-dimethylthiazol-2-yl)-5-(3-carboxymethoxyphenyl)-2(4-sulfophenyl)2-H-tetrazolium, inner salt (MTS), as described previously (Cory et al., 1991). The metabolism of tetrazolium salts is often used to measure cellular proliferation, but in the system used here, it has been previously shown to correlate well with cell viability as determined by trypan blue exclusion and colony-forming assays (Davis and Maher, 1994). Briefly, HT-22 cells were seeded onto 96-well plates at 5.0×10^3 cells per well in 75 μL of medium and maintained at 37° C. in 5% CO2 overnight prior to the initiation of experimental treatments. For glutamate toxicity testing, cells were subsequently treated with 25 μL of medium containing glutamate (monosodium glutamate, Sigma, 1 M stock concentration in media, to achieve a final concentration of 10 mM) plus inhibitors (stock in DMSO) and maintained at 37° C. in 5% CO2. For t-BuOOH toxicity testing, cells were subsequently treated with 25 μL of medium containing t-BuOOH (Sigma, 10 mM stock concentration, to achieve a final concentration of 50 μM) plus inhibitors (stock in DMSO) and maintained at 37° C. in 5% CO2 for 3 hours, after which the media was removed, cells washed gently with HBSS, the media replaced with standard culture media, and the cells returned to incubation at 37° C. in 5% CO2. For both glutamate and t-BuOOH treatments, 10 μl of MTS solution was added to each well 24 hrs after initial treatment, and the cells were maintained in growth medium for 2 h at 37° C. Absorbance at 490 nm was subsequently measured by a SpectraMax 190 plate reader (Molecular Devices). The growth medium without cells in the presence of MTS solution was used as solution background and untreated cells were considered the controls. Cell viability was calculated as a percentage compared with untreated controls. EC50 determinations were based on 12-point titrations using GraphPad Prism, and each experiment was repeated at least four times. Morphology of HT22 cells following treatments was determined by phase-contrast microscopy. Digital images of cells grown on cell culture plates were captured at 10× magnification.\nIn light of the findings that the protection against glutamate induced cell death provided by VK2, 2q, and 2j, are at least partially mediated by the attenuation of the increased production of endogenous ROS, the inventors also examined the effects of these compounds on tert-butylhydroperoxide (t-BuOOH) induced cell death. t-BuOOH is a short chain analog of the lipid hydroperoxides formed from peroxidation reactions during oxidative stress that is cytotoxic to cells (Lemasters and Nieminen, 1997). […] It is well documented that cells undergo rapid and extensive fragmentation in the early stages of cell death (Bossy-Wetzel et al., 2003; Frank et al., 2001; Breckenridge et al., 2008; Jagasia et al., 2005; Lee et al., 2004). Recent studies have shown that mitochondrial fragmentation is regulated by the translocation of dynamin-related protein 1 (Drp1) from the cytosol to the mitochondria, where it assembles to form spirals at division sites (Smirnova et al., 2001). Although the exact molecular mechanism is still not well studied, the activity of Drp1 is regulated by the phosphorylation and dephosphorylation of specific serine residues by protein kinases and phosphatases such as calcineurin and the PGAM5 (Wang et al., 2012; Chang et al., 2007). […]"}}}
{"compound": "C#CCNC1=CC(=O)c2ccccc2C1=O", "note": "[Compound 2h, 2-(prop-2-yn-1-ylamino)naphthalene-1,4-dione]", "values": [{"measurement": "animals protected/animals tested, 0.25 h", "setting": "[1]; 100 mg/kg i.p., 32 mA", "value": "4/4"}, {"measurement": "animals protected/animals tested, 0.5 h", "setting": "[1]; 100 mg/kg i.p., 32 mA", "value": "2/4"}, {"measurement": "animals protected/animals tested, 1.0 h", "setting": "[1]; 100 mg/kg i.p., 32 mA", "value": "1/4"}, {"measurement": "animals protected/animals tested, 2.0 h", "setting": "[1]; 100 mg/kg i.p., 32 mA", "value": "1/4"}, {"measurement": "animals protected/animals tested, 4.0 h", "setting": "[1]; 100 mg/kg i.p., 32 mA", "value": "0/4"}, {"measurement": "protection against 6 Hz seizures", "setting": "[1]; 100 mg/kg i.p., 32 mA, 0.25 h", "value": 100, "unit": "%"}, {"measurement": "anticonvulsant activity in minimal clonic (6 Hz) test", "setting": "[1]; 32 mA", "value": "good anticonvulsant activity"}, {"measurement": "protection in 6 Hz model at 44 mA", "setting": "[1]; 44 mA", "value": "did not result in any protection"}]}
{"compound": "O=C1C=C(NCc2ccccc2)C(=O)c2ccccc21", "note": "[Compound 2j, 2-(benzylamino)naphthalene-1,4-dione]", "values": [{"measurement": "animals protected/animals tested, 0.25 h", "setting": "[1]; 100 mg/kg i.p., 32 mA", "value": "0/4"}, {"measurement": "animals protected/animals tested, 0.5 h", "setting": "[1]; 100 mg/kg i.p., 32 mA", "value": "0/4"}, {"measurement": "animals protected/animals tested, 1.0 h", "setting": "[1]; 100 mg/kg i.p., 32 mA", "value": "1/4"}, {"measurement": "animals protected/animals tested, 2.0 h", "setting": "[1]; 100 mg/kg i.p., 32 mA", "value": "1/4"}, {"measurement": "animals protected/animals tested, 4.0 h", "setting": "[1]; 100 mg/kg i.p., 32 mA", "value": "1/4"}, {"measurement": "anticonvulsant activity in minimal clonic (6 Hz) test", "setting": "[1]; 32 mA", "value": "good anticonvulsant activity"}, {"measurement": "protection from t-BuOOH induced cell death", "setting": "[2]", "value": "capable of protecting HT22 cells from t-BuOOH"}]}
{"compound": "O=C1C=C(NCc2cccc(Cl)c2)C(=O)c2ccccc21", "note": "[Compound 2q, 2-((3-chlorobenzyl)amino)naphthalene-1,4-dione]", "values": [{"measurement": "animals protected/animals tested, 0.25 h", "setting": "[1]; 100 mg/kg i.p., 32 mA", "value": "1/4"}, {"measurement": "animals protected/animals tested, 0.5 h", "setting": "[1]; 100 mg/kg i.p., 32 mA", "value": "0/4"}, {"measurement": "animals protected/animals tested, 1.0 h", "setting": "[1]; 100 mg/kg i.p., 32 mA", "value": "1/4"}, {"measurement": "animals protected/animals tested, 2.0 h", "setting": "[1]; 100 mg/kg i.p., 32 mA", "value": "0/4"}, {"measurement": "animals protected/animals tested, 4.0 h", "setting": "[1]; 100 mg/kg i.p., 32 mA", "value": "0/4"}, {"measurement": "anticonvulsant activity in minimal clonic (6 Hz) test", "setting": "[1]; 32 mA", "value": "good anticonvulsant activity"}, {"measurement": "protection from t-BuOOH induced cell death", "setting": "[2]", "value": "capable of protecting HT22 cells from t-BuOOH"}]}
{"compound": "menaquinones [VK2, reference compound]", "values": [{"measurement": "protection from t-BuOOH induced cell death", "setting": "[2]", "value": "capable of protecting HT22 cells from t-BuOOH"}]}
